Experimental data published in patent publication US20230414617A1, “PHARMACEUTICAL COMPOSITION COMPRISING ACID-BASE NEUTRALIZATION COMBINATION AND APPLICATION THEREOF” (CHENGDU KUACHANGAOPU MEDICAL TECHNOLOGY CO., LTD., priority 2020, published 2023).

How the values were obtained:
tumor = experiment: Tumor inhibition rate, general statements (chemical ablation study; positive controls); type: in vivo
breast cancer 4T1 cells [1] = experiment: Tumor inhibition, breast cancer 4T1 transplantation tumor (Example 3); type: in vivo, BALB/c mouse; settings: intratumoral; for Tumor weight (x ± s): 150 μl/mouse, once every 3 days x3, 5th day after end; for Tumor inhibition rate: vs negative control
Procedure: (§1) In the following examples of the present invention, the co-administration pharmaceutical efficacies of drug A and drug B combination administration was determined by ratio q of actual pharmaceutical efficacy/expected pharmaceutical efficacy according to Zhengjun JIN method, as follows.
In an experiment, the test animal was a BALB/c mouse, the modeling cells were breast cancer 4T1 cells, and the transplantation tumor was modeled at 1×10^6 cells/mouse under the skin of the animal's right axilla. […] Each group was administered by intratumoral injection once every 3 days for a total of 3 times, each time at an injection dose of 150 μl/mouse. On the 5th day after the administration was ended, the animals were euthanized, and the tumor weight was determined after anatomy to the animals. The tumor inhibition rate was calculated from the negative control group.

[2] = test system: mouse liver cancer Hepa1-6 cells; experiment: Series B: tumor inhibition, Hepa1-6 transplantation tumor in 8-month-old mice (Example 10); type: in vivo; settings: one intratumoral injection 100 μl/mouse; for r'3d, tumor inhibition rate (tumor volume): day 3; for r'14d, tumor inhibition rate (tumor volume): day 14
Procedure: The animals in series B were modeled in 8-month-old mice as a middle-aged and elderly patient model, which was not consistent with the commonly used young patient model in terms of tumor formation, tumor histomorphology, and body immunocompetence. […] The model animals were randomly divided into 13 groups. Each group was administered once by intratumoral injection according to the drug grouping in Table 11 with an injection volume of 100 μl/mouse.
The actual/expected ratio […] for short-term drug efficacy and the actual/expected ratio q14d for medium-term drug efficacy were calculated based on the drug efficacies (r′3d, […]) at different times (day 3, day 14), respectively.

[3] = test system: outer lateral muscle of right leg; experiment: Series A: tissue destruction in normal muscle after intramuscular injection (Example 10); type: in vivo, nude mice; settings: one intramuscular injection 100 μl/mouse, day 3
Procedure: The test animals were divided into two series, A and B. The animals in series A were non-modeled nude mice, randomly divided into four groups, and were injected with the drugs according to groups 1-4 in Table 11 by intramuscular injection of outer lateral muscle of right leg. Each group was administered once, at an injection volume of 100 μl/mouse. On day 3 after the administration was ended, the animals were euthanized, and the specimens from outer lateral muscle mass of right leg of the nude mice were dissected and taken out, and gross pathological analysis was performed. The muscle sections were measured for distinguishing the area of tissue destruction region in the normal muscle (incomplete necrosis) (T3a) and the area of severe tissue destruction region therein (complete necrosis) […], and the results are shown in Table 11 below.

sarcoma S180 cell = experiment: Tumor inhibition effect in mice bearing sarcoma S180 cell (Example 2); type: in vivo; settings: intratumoral injection; for Tumor weight (x ± s): 150 μl/mouse, once every 3 days x3, 5th day after end; for Tumor inhibition rate: vs negative control group 01
Procedure: as §1
In the tumor inhibition effect study, successfully modeled experimental animals (mice bearing sarcoma S180 cell, with an average tumor volume of 314 mm^3) were randomly divided into 2 negative control groups (01, 02) and 9 drug study groups (1-9). […] The negative control and study drugs were administered by intraperitoneal injection (groups 02, 6 and 9) and intratumoral injection (other study groups), respectively. Each group was administered once every 3 days for a total of 3 times, with an injection volume of 150 μl/mouse. On the 5th day after the administration was ended, the animals were euthanized, and the tumor weight was measured after anatomy to the animals. The tumor inhibition rate was calculated from the negative control group of each drug administration mode.

[4] = pH of the study drug aqueous solution; type: physicochemical
liver tissue = experiment: Tissue necrosis study: necrotic zone of liver tissue after intrahepatic injection (Example 2); type: in vivo, New Zealand Large White rabbits
Procedure: The rabbits were kept on conventional diet after drug administration, euthanized after 1 week, and the necrotic zone of the liver was determined after autopsy. The liver was incised along the center of the necrotic zone, and the extent of the necrotic zone was measured at the largest level, and the maximum and minimum diameters of the necrotic zone were measured respectively. The average diameter of the necrotic zone of liver tissue=(maximum diameter+minimum diameter)/2.

breast cancer 4T1 cells [5] = experiment: Tumor inhibition, breast cancer 4T1 transplantation tumor (Example 7); type: in vivo, BALB/c mouse; settings: intratumoral
Procedure: as §1
In an experiment, the test animal was a BALB/c mouse, the modeling cells were breast cancer 4T1 cells, and the transplantation tumor was modeled at 1×10^6 cells/mouse under the skin of the animal's right axilla. […] The negative controls and study drugs were administered intraperitoneally (groups 02, 11 and 15) and intratumorally (other study groups), respectively. All groups were dosed once every 3 days, for a total of 3 times, […], with an injection volume of 150 ul/mouse. On the 5th day after the administration was ended, the animals were euthanized, and the tumor weight was measured after anatomy to the animals. The tumor inhibition rate was calculated from the negative control group.

breast cancer 4T1 cells [6] = experiment: Tumor inhibition, breast cancer 4T1 transplantation tumor (Example 4); type: in vivo, BALB/c mice; settings: intratumoral
Procedure: as §1
In another experiment, the test animal was BALB/c mice, the modeling cells were breast cancer 4T1 cells, and the transplantation tumor was modeled at 1×10^6 cells/mouse under the skin of the animal's right axilla. Successfully modeled experimental animals (average tumor volume 307 mm^3) were randomly divided into 1 negative control group (group 0) and 13 drug study groups (groups 1-13). […] Each group was administered by intratumoral injection once every 3 days for a total of 3 times, each time at an injection dose of 150 μl/mouse. On the 5th day after the administration was ended, the animals were euthanized, and the tumor weight was measured after anatomy to the animals. The tumor inhibition rate was calculated from the negative control group.

[7] = positive controls, under the conditions of the following examples
[8] = study drugs of Example 2 (Table 4), aqueous solution
[9] = study drugs of Example 3 (Table 5), aqueous solution

## CCO [75-99% ethanol, ethanol]
tumor; [7]
  Tumor inhibition rate: ≥ 15%

## O=C([O-])O.[Na+] [7% sodium bicarbonate, sodium bicarbonate]
Breast cancer 4T1 cells [1]
  Tumor weight (x ± s): 1.73 ± 0.27 g
  Tumor inhibition rate: 29%
[2]
  r'3d, tumor inhibition rate (tumor volume): 4.1%
  r'14d, tumor inhibition rate (tumor volume): 3.9%
[3]
  S3d, area of severe tissue destruction region (complete necrosis): 0 mm^2
  T3d, area of tissue destruction region in the normal muscle (incomplete necrosis): 0 mm^2
Sarcoma S180 cell
  Tumor weight (x ± s): 1.59 ± 0.20 g
  Tumor inhibition rate: 28%
[4]; [8]
  pH: 8.1
[4]; [9]
  pH: 8.1

## [Na+].[OH-] [sodium hydroxide]
tumor; chemical ablation study with basifying agents, model not stated
  Tumor inhibition rate: 43%
[4]; sodium hydroxide solution before and after neutralization with sodium bicarbonate (e.g.)
  pH: 12

## [Na+].[OH-] [0.3% NaOH, sodium hydroxide]
Liver tissue; rabbit, in vivo
  Diameter of necrotic zone of liver tissue (r ± s): 1.3 ± 0.3 cm
Sarcoma S180 cell
  Tumor weight (x ± s): 1.52 ± 0.22 g
  Tumor inhibition rate: 31%
[4]; [8]
  pH: 13.3

## N=C(N)NCCC[C@H](N)C(=O)O [15% arginine, arginine]
Breast cancer 4T1 cells [5]; 150 ul/mouse, once every 3 days x3, 5th day after end
  Tumor weight (x ± s): 1.64 ± 0.28 g
Breast cancer 4T1 cells [5]; vs negative control
  Tumor inhibition rate: 25%
Liver tissue; one intrahepatic injection of 1.0 mL, after 1 week
  Diameter of necrotic zone of liver tissue (r ± s): 0.2 ± 0.1 cm
Breast cancer 4T1 cells [6]; 150 μl/mouse, once every 3 days x3, 5th day after end
  Tumor weight (x ± s): 1.74 ± 0.28 g
Breast cancer 4T1 cells [6]; vs negative control
  Tumor inhibition rate: 23%
Sarcoma S180 cell
  Tumor weight (x ± s): 2.01 ± 0.24 g
  Tumor inhibition rate: 23%
[4]; [8]
  pH: 10.9
[4]; study drugs of Example 4 (Table 6), aqueous solution
  pH: 11.0
[4]; study drugs of Example 7 (Table 9), aqueous solution
  pH: 10.9

## [Na+].[OH-] [3% NaOH, sodium hydroxide]
Breast cancer 4T1 cells [1]
  Tumor weight (x ± s): 1.09 ± 0.25 g
  Tumor inhibition rate: 55%
Liver tissue; rabbit, in vivo
  Diameter of necrotic zone of liver tissue (r ± s): 1.8 ± 0.5 cm
[2]
  r'3d, tumor inhibition rate (tumor volume): 31.2%
  r'14d, tumor inhibition rate (tumor volume): 2.8%
[3]
  S3d, area of severe tissue destruction region (complete necrosis): 18.3 mm^2
  T3d, area of tissue destruction region in the normal muscle (incomplete necrosis): 29.6 mm^2
Sarcoma S180 cell
  Tumor weight (x ± s): 1.04 ± 0.21 g
  Tumor inhibition rate: 53%
[4]; [8]
  pH: 13.8
[4]; study drugs of Example 2 (Table 4), aqueous solution, listed as 3% sodium hydroxide
  pH: 11.8
[4]; [9]
  pH: 13.7

## O=c1[nH]cc(F)c(=O)[nH]1 [0.5-1% 5-fluorouracil, 5-fluorouracil]
tumor; [7]
  Tumor inhibition rate: ≥ 30%
